Like-named read-outs stand apart in the source and are kept apart here. Marks after values point to notes of the source that are not given here.
Key:
[1] = test system: peritoneum following zymosan challenge; conditions: peritoneal lavage four hours post zymosan (2 mg/animal)
Description: Compounds were administered orally before an intraperitoneal zymosan injection (2 mg/animal).

Female BALB/c mice = experiment: Deaths following lipopolysaccharide (LPS) challenge; type: in vivo; conditions: 20 mg/kg LPS intravenous, monitored 72 hours
Description: Female BALB/c mice were dosed orally, twice a day with vehicle (0.2% HPMC), or drug at 30 mg/kg/day or 100 mg/kg/day. The mice were injected intravenous with 20 mg/kg LPS at 30 minutes after the first treatment dose. They were monitored for survival for 72 hours or until 80-90% lethality was observed.

[2] = molecular target: Recombinant Human Poly(ADP-Ribose) Polymerase (PARP) (Homo sapiens, UniProt P09874); experiment: Inhibition of PARP (PARP1 assay, [3H]-NAD+ / biotinylated histone H1, FlashPlate); conditions: read-out: PARP Inhibition Ki; Table 1; quaternary and non-quaternary compounds
Description: Nicotinamide[2,5′,8-3H]adenine dinucleotide and strepavidin SPA beads were purchased from Amersham Biosiences (UK) Recombinant Human Poly(ADP-Ribose) Polymerase (PARP) purified from E. coli and 6-Biotin-17-NAD^+, were purchase from Trevigen, Gaithersburg, Md. NAD^+, Histone, aminobenzamide, 3-amino benzamide and Calf Thymus DNA (dcDNA) were purchased from Sigma, St. Louis, Mo. Stem loop oligonucleotide containing MCAT sequence was obtained from Qiagen. The oligos were dissolved to 1 mM in annealing buffer containing 10 mM Tris HCl pH 7.5, 1 mM EDTA, and 50 mM NaCl, incubated for 5 min at 95° C., and followed by annealing at 45° C. for 45 minutes. […] Biotinylated histone H1 was prepared by treating the protein with Sulfo-NHS-LC-Biotin from Pierce Rockford, Ill. The biotinylation reaction was conducted by slowly and intermittently adding 3 equivalents of 10 mM Sulfo-NHS-LC-Biotin to 100 μM Histone H1 in phosphate-buffered saline, pH 7.5, at 4° C. with gentle vortexing over 1 min followed by subsequent 4° C. incubation for 1 hr. Streptavidin coated (FlashPlate Plus) microplates were purchased from Perkin Elmer, Boston, Mass.
PARP1 assay was conducted in PARP assay buffer containing 50 mM Tris pH 8.0, 1 mM DTT, 4 mM MgCl2. […] Auto reactions utilizing SPA bead-based detection were carried out in 100 μl volumes in white 96 well plates.

[3] = 30 mg/kg/day orally twice a day
[4] = 100 mg/kg/day orally twice a day

Recombinant Human Poly(ADP-Ribose) Polymerase (PARP), sequence (P09874 whole entry): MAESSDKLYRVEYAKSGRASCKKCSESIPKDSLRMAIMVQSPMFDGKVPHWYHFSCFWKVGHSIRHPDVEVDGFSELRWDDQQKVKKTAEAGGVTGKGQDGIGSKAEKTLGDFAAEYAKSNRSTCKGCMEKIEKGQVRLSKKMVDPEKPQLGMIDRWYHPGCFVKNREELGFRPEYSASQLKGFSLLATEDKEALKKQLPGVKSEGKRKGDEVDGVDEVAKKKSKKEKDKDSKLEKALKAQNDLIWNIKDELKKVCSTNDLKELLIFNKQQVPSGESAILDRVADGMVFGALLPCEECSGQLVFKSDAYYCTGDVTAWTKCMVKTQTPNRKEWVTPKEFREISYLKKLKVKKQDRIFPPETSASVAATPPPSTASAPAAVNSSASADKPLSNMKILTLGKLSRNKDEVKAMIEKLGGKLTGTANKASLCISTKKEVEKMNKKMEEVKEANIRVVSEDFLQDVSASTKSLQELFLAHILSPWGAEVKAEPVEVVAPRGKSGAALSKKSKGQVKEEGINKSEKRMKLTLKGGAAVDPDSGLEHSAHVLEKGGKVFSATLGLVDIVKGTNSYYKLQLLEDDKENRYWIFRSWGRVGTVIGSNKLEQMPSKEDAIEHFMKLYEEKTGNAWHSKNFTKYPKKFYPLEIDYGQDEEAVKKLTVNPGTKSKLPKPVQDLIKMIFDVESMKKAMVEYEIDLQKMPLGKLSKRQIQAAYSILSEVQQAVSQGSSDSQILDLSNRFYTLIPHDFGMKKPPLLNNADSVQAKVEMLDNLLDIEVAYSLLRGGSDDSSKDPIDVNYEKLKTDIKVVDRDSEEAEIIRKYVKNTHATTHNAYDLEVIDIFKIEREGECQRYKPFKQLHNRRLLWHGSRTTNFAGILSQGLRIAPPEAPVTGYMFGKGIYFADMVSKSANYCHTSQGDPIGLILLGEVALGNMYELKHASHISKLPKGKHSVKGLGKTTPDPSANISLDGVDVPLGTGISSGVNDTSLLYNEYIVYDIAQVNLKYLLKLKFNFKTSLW

Row | Ki [2] | SMILES | Percent decrease in Cell Influx relative to control ([1]; 30 mg/kg orally) | Percent decrease in IL-1 level relative to control ([1]; 30 mg/kg orally) | Percent decrease in Cell Influx relative to control ([1]; 100 mg/kg orally) | Percent decrease in IL-1 level relative to control ([1]; 100 mg/kg orally) | Deaths following LPS challenge (lethality) (Female BALB/c mice; [3]) | Deaths following LPS challenge (lethality) (Female BALB/c mice; [4])
1 |  | CCCN1CCC(c2nc3c(C(N)=O)cccc3[nH]2)CC1 [2-(1-propylpiperidin-4-yl)-1H-benzimidazole-4-carboxamide] | 0% | 32% | 23% | 47%* | 8/10 | 9/10
2 | 9.1 nM | NC(=O)c1cccc2[nH]c(C3CCN(CCc4ccccc4)C3)nc12 (stereo not shown) [2-[1-(2-phenylethyl)pyrrolidin-3-yl]-1H-benzimidazole-4-carboxamide] |  |  |  |  |  | 
3 | 34 nM | NC(=O)c1cccc2[nH]c(C3CCN3)nc12 (stereo not shown) [2-azetidin-2-yl-1H-benzimidazole-4-carboxamide] |  |  |  |  |  | 
4 |  | C[C@@]1(c2nc3c(C(N)=O)cccc3[nH]2)CCCN1 [Example 4, 2-[(2S)-2-methylpyrrolidin-2-yl]-1H-benzimidazole-4-carboxamide] |  |  |  |  | 8/10 | 4/10*

Source: patent publication US7550603B2, “1H-benzimidazole-4-carboxamides substituted with a quaternary carbon at the 2-position are potent PARP inhibitors” (Abbott Laboratories Inc., priority 2005, dated 2009)
